The test system of experiment [1] is laser-induced thrombi in cremaster arterioles. In kind it is in vivo. From the text:
A preferred animal model involves intravital microscopy of laser-induced thrombi. The method is described by Rosen et al., 2001, Am J Pathol 158, 1613–1622, which is incorporated herein by reference. Minor variations of that method were employed as described below.
Experimental mice are pre-anesthetized and surgically prepared. A tracheal tube is placed to facilitate breathing and the jugular vein is canulated to allow for maintenance of anesthetic and introduction of compound. The cremaster muscle is then exteriorized. The muscle is affixed over a glass slide, allowing illumination from below. A steady drip of a sodium-bicarbonate buffered salt solution is maintained throughout the experiment to keep the exposed muscle moist. Blood flow in the muscle is visualized using a 40× water immersion lens and epi-illuminated with an appropriately filtered light source. Alexa 488-labeled anti-mouse CD41 antibody is injected through the jugular canulus to label platelets in vivo.
Thrombosis is initiated by damaging the vessel wall (of a 30 μm vessel) with a laser pulse from a MicroPoint LASER attached to the microscope. A LASER pulse is delivered, causing damage in an area smaller than 1 μm. The recruitment of platelets to the thrombus is then monitored by the accumulation of (activated) Alexa 488-labeled platelets at the ablation site using fluorescence microscopy, and the process is recorded digitally. The method thus permits in vivo analysis of platelet activation as measured by platelet aggregation and thrombosis.
The degree of embolization in an untreated mouse can be quantified using software for image analysis, e.g., BioQuant True Color Windows (Biometrics, Nashville, Tenn.), as described in Rosen et al., 2001, supra. The software package permits the determination of the “integrated optical density” or IOD of the thrombus.
Using quantitative intravital fluorescence videomicroscopy with high temporal resolution (111 images/second), the effect of PDE3 inhibition on the platelet recruitment into thrombi was directly observed over time. Platelets were fluorescently labeled by infusing rat-anti-mouse CD41 and Alexa 488-anti-rat IgG through a cannulated jugular vein. The cremaster microvasculature was exposed and mapped and suitable arteriole segments were selected for laser-induced injury. A series of control injuries were generated prior to infusion of the inhibitory compound. The power and the number of laser pulses required to generate each thrombus was recorded. Platelet accumulation to the thrombi following laser ablation was recorded using digital videomicroscopy. The thrombus total fluorescence in each frame of the videos was analyzed using Slidebook software for digital videomicroscopy. The pyridazinone compound was then infused. Following a 15 minute incubation, a series of experimental injuries were generated 250 μm proximal, with relationship to blood flow, of the first injury and the resultant thrombi were recorded. The power and the number of pulses required to induce the control thrombus was used to induce the experimental thrombus. The control and experimental thrombi constituting a pair were compared for statistical analysis. The total fluorescence intensity of the thrombi before and after the infusion of pyridazinone compound was recorded.
Images from a representative experiment of the recruitment of fluorescently-labeled […] platelets into a growing thrombus over time is shown in FIG. 9A.

In a further experiment the test system is mouse platelets. The following applies: in words.
Experiment [2] deals with PGE1-induced cAMP levels in platelets. In words: augmentation of PGE1-induced cAMP levels in platelets. The settings on record: in words. Format: cell-based, human. The procedure: (A) Compound was tested for its ability to inhibit SFLLR-, U46619-, ADP-, PMA-, and collagen I-induced platelet α-granule secretion. (B) The effect of the compound on PGE1-stimulated cAMP elevation was analyzed. Platelets were incubated with increasing doses of pyridazinone compound for 30 minutes prior to the 2 minute incubation with PGE1. Platelets were subsequently lysed and cAMP level was assayed using a commercially available ELISA kit (Liao et al., 1998, Eur J Pharmacol 349, 107–14). […] Error bars represent mean ±1 SD (n=4), *P<0.001.
One frequent target of anti-platelet agents is phosphodiesterase III (PDE III). […] The assay is performed as described by Liao et al., 1998, Eur J Pharmacol 349,107–114, incorporated herein by reference. Briefly, aliquots of PRP are exposed to increasing concentrations of the agent for 20 minutes. The PRP is then challenged with 1 μM PGE1 for 2 min The reaction is stopped by adding 10 mM EDTA, followed immediately by boiling for 2 min. The mixture is cooled to 4° C. and the precipitated protein is pelleted. cAMP content in the supernatant is quantitated using an enzyme immunoassay kit (Pharmacia-Amersham, NJ) according to the instructions of the manufacturer.
In order to assess whether the compounds useful according to the invention might act through inhibition phosphodiesterase III, each was tested for its effect on PGE1-induced cAMP increase. Determination of platelet cAMP levels was performed as described by Liao et al., 1998, supra. Aliquots of PRP were exposed to increasing concentrations of the indicated compounds for 20 min. PRP was then challenged with 1 μM PGE1 for 2 min. The reaction was stopped with the addition of 10 mM EDTA followed immediately by boiling for 2 min. The mixture was then cooled to 4° C. and the precipitated protein was pelleted. Cyclic AMP content in the supernatant was then quantified using an enzyme immunoassay kit (Pharmacia-Amersham, NJ) according to the instructions of the manufacturer.
A general note: cAMP levels reflect the balance of adenylyl cyclase and phosphodiesterase activity.

In experiment [3] the test system is platelets. Put plainly: agonist-induced platelet granule secretion (P-selectin expression, flow cytometry). Format: cell-based, human. Here is the method:
In order to assay platelet activation by cell surface marker expression, fresh PRP is isolated from donors who have not ingested aspirin for two weeks prior to donation. PRP (40 μl) is incubated with known or suspected inhibitor in DMSO or DMSO alone for 15 min. The sample is then incubated with the indicated agonist (e.g., SFLLR) for 10 min. Following incubation of the sample with the indicated agonist, 10 μl of reaction mixture is transferred to 5 μl of phycoerythrin (PE)-conjugated AC 1.2 anti-P-selectin antibody (for assessment of P-selectin surface expression) or fluorescein isothiocyanate (FITC)-conjugated PAC-1 antibody (for assessment of GPIIbIIIa activation). PBS (500 μl) is added to the sample after a 20 min incubation and the platelets are analyzed immediately by flow cytometry. Flow cytometry can be performed using, for example, a Becton-Dickinson FACSCalibur flow cytometer or its equivalent. Fluorescent channels are set at logarithmic gain. Ten thousand particles are acquired for each sample. A 530/30 band pass filter is used for FL-1 fluorescence. A 585/42 band pass filter is used for FL-2 fluorescence. FITC is measured in the FL-1 channel and PE is measured in the FL-2 channel. Data are analyzed using, for example, CellQuest software on a Macintosh PowerPC, or their equivalents. […]
Each of the compounds was tested for inhibition of platelet activation in response to the agonists SFLLR (a thrombin mimic), U46619 (a thromboxane A2 mimic), ADP and the phorbol ester PMA.
Compounds were also tested by flow cytometry for the inhibition of SFLLR-induced GPIIbIIIa activation and P-selectin expression. In these experiments, freshly obtained PRP was prepared from healthy volunteers who had not ingested aspirin for two weeks prior to donation. Forty μl of PRP was incubated with inhibitor in DMSO or DMSO alone for 15 min. The sample was then incubated with the indicated agonist for 10 min. Following incubation of the sample with the indicated agonist, 10 μl of reaction mixture was transferred to 5 μl of PE-conjugated AC1.2 anti-P-selectin antibody (for assessment of P-selectin surface expression) or FITC-conjugated PAC-1 antibody (for assessment of GPIIbIIIa activation). PBS (500 μl) was added to the sample after a 20 min incubation and the platelets were analyzed immediately by flow cytometry. Flow cytometry was performed using a Becton-Dickinson FACSCalibur flow cytometer. Fluorescent channels were set at logarithmic gain. Ten thousand particles were acquired for each sample. A 530/30 band pass filter was used for FL-1 fluorescence. A 585/42 band pass filter was used for FL-2 fluorescence. FITC was measured in the FL-1 channel and PE was measured in the FL-2 channel. Data were analyzed using CellQuest software on a MacIntosh PowerPC.
Compound was tested for its ability to inhibit SFLLR-, U46619-, ADP-, PMA-, and collagen I-induced platelet α-granule secretion. In these assays, platelets were incubated with increasing doses of compound for 30 minutes. The platelets were then exposed to a maximally stimulatory dose of the indicated agonist. P-selectin surface expression was analyzed by flow cytometry using phycoerythrin-anti-P-selectin to monitor for α-granule secretion.
For orientation: In flow cytometry, cells or beads pass a laser one at a time.

Experiment [4] deals with platelets. In words: platelet aggregation (aggregometer). In kind it is cell-based, human. The following applies: in words. The procedure: Platelet aggregation profiling is a standard methodology, generally performed with an instrument adapted for that express purpose, for example, a Platelet Aggregation Profiler (BioData, Horsham, Pa.). The assays can generally be performed according to the instructions of the manufacturer. As exemplary conditions, 400 μl of PRP are incubated with inhibitor for 15 minutes at room temperature. The sample is then incubated for 3 minutes at 37° C. in the Platelet Aggregation Profiler. The instrument is calibrated with platelet poor plasma serving as a blank. A baseline tracing is established by monitoring the light transmittance of PRP being stirred at 1200 rpm. Aggregation is initiated by the addition of SFLLR (200 μM) and the percent of platelet aggregation is measured by the change in light transmittance for 6 minutes following addition of SFLLR.

The test system of experiment [5] is platelet protein palmitoylation. In words: incorporation of [3H]-palmitate into platelet proteins. The following applies: 100 μM compound; 20 μM or 200 μM SFLLRN; in words. Format: cell-based. Here is the method:
Platelets were labeled with [^3H]-palmitate for 2 hours in the absence (lanes 1, 2, and 3) or presence (lanes 4, 5, and 6) of 100 μM JF081204{5C} for 2 hours. Labeled platelets were then incubated with 0 μM ([…]), 20 μM (lanes 2 and 5), or 200 μM SFLLRN (lanes 3 and 6). Platelet samples were lysed, separated by SDS-PAGE, Western blotted, and visualized with a tritium imager screen (Panel a). The activation of platelets by SFLLRN led to an increase incorporation of [^3H]-palmitate into platelet proteins, whereas the presence of JF081204{5C} inhibited this activation-dependent [^3H]-palmitate incorporation (Panel b). Western blot membrane from panel (a) was stained with Ponceau S to visualize proteins in the platelet lysates.
The incorporation of [^3H]-palmitate into platelet intracellular proteins was examined to determine the effect of JF081204{5C} on platelet protein palmitoylation. […] Exposure of platelets to either 20 μM or 200 μM SFLLRN increased the intensity of the labeling. Incubation of platelets with 100 μM of JF081204 {5C} inhibited the increase in [^3H]-palmitate incorporation induced by either 20 μM or 200 μM SFLLRN.

Experiment [6] relates to patients suffering intermittent claudication. The settings on record: cited from earlier work.

For the compound “9-methylene-4-(alkyl)-2,3,4,9-tetrahydro-1H-cyclopenta(b)quinoline”, the “thrombosis following laser-induced injury (reduction)” value in experiment [1] (bolus 6 mg/kg/5 min then continuous infusion 3 mg/kg/90 min, 36 thrombi in 5 mice) was “greater than 80%”. Besides, the “activation of mouse platelets by several platelet agonists” value in the experiment on mouse platelets was “inhibits activation of mouse platelets”.
In the case of `Cn1cc(/C=N/NC(N)=O)c2ccccc21` [2-[(1-methyl-1H-indol-3-yl)methylene]-hydrazinecarboxamide], in experiment [2], the “effect on PGE1-stimulated cAMP levels in platelets” value was “augmented cAMP levels”. In addition, the “effect on ADP-induced activation” value with platelets [3] (ADP-induced, in words) is listed as “little effect”. Moreover, the “effect on PMA-induced platelet activation” value in the experiment on platelets [3] (in words) was “little effect”.
For `CCCCCn1c2c(c(=N)c3ccccc31)CCC2` [JF081204{5C}], the “IC50s for U46619-, A23187-, and PMA-induced P-selectin expression less potent than SFLLR” value with platelets [3] (U46619, A23187, PMA vs SFLLR) is recorded as “at least 150 fold”. Also, in experiment [1] (3 mg/kg (P<0.002) and 6 mg/kg (P<0.02), in words), the “median of maximum platelet accumulation compared to absence of compound” value is recorded as “statistically significant decrease”. The “median stabilized platelet accumulation” value in experiment [1] (3 mg/kg (P<0.01) and 6 mg/kg (P<0.001), in words) is reported as “dose-dependent inhibition”. In addition, in experiment [1] (1, 3 and 6 mg/kg, in words), the “delay in onset of platelet accumulation (time to 50% maximum platelet accumulation)” value is recorded as “statistically significant delay”. Moreover, the “inhibition of U46619- and collagen-induced platelet aggregation” value in the experiment on platelets [4] was “not effective”. For the same compound, the “SFLLRN activation-dependent [3H]-palmitate incorporation into platelet proteins” value in experiment [5] is recorded as “inhibited”.
With `CC1CC(=O)NN=C1c1ccc(Cl)cc1` (stereo not drawn) [Structure 9, 6-(4-chlorophenyl)-5-methyl-4,5-dihydro-5 methyl-3(2H)-pyridazinone], the “effect on PMA-induced platelet activation” value in the experiment with platelets [3] (in words) was “did not inhibit”.
`Nc1cc2cccnc2c2ncccc12` [[1,10]Phenanthroline-5-ylamine, [1,10] Phenanthroline-5-ylamine]: in experiment [2], the “effect on PGE1-stimulated cAMP levels in platelets” value is on record as “failed to augment”. Further, in the experiment with platelets [3] (in words), the “effect on PMA-induced platelet activation” value is on record as “did not inhibit”.
As for `O=C1CCc2cc(OCCCCc3nnnn3C3CCCCC3)ccc2N1` [cilostazol], the “increase of the distance of pain free walking” value in experiment [6] is listed as “up to 59%”.
